# pIC50: −log10 of the molar value.
# Tested on: 422866-222-R5-J1-PDC complex spheroids viability
# Assay: Anticancer human tumor 422866-222-R5-J1-PDC patient-derived pancreatic adenocarcinoma cell line growth inhibition [RAS]
# Conditions: for pIC50: curve of first compound; for viability, T/C: stronger effect = lower value
# How it was run: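 Agents were tested in combination matrices in half-log decrements from a top concentration at or near clinical Cmax (10 microM if undetermined). Targets were multi-cell spheroids of tumour lines plus HUVEC and MSC stromal cells.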
# [1] = second compound 0.000949 µM, first compound 0.0316 µM
# [2] = second compound 0.000949 µM, first compound 0.1 µM
# [3] = second compound 0.003 µM, first compound 0.0316 µM
# [4] = second compound 0.003 µM, first compound 0.1 µM
# [5] = second compound 0.00949 µM, first compound 0.0316 µM
# [6] = second compound 0.00949 µM, first compound 0.1 µM
# [7] = second compound 0.03 µM, first compound 0.0316 µM
# [8] = second compound 0.03 µM, first compound 0.1 µM
# [9] = second compound 0.0949 µM, first compound 0.0316 µM
# [10] = second compound 0.0949 µM, first compound 0.1 µM
# [11] = second compound 0.3 µM, first compound 0.0316 µM
# [12] = second compound 0.3 µM, first compound 0.1 µM
# 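Note: spheroids exposed to compounds for 7 days.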
# 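Throughout, for viability, T/C: 100% = DMSO vehicle control viability.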
structure (smiles),measurement,setting,value
CC(C)n1nc(-c2ccc3oc(N)nc3c2)c2c(N)ncnc21 + CCn1c(-c2cc(N3CCN(C)CC3)cnc2C(C)OC)c2c3cc(ccc31)-c1csc(n1)CC(NC(=O)C1CC1C)C(=O)N1CCCC(N1)C(=O)OCC(C)(C)C2,pIC50,second compound 0.000949 µM,> 9.50
same,pIC50,second compound 0.003 µM,> 9.50
same,pIC50,second compound 0.00949 µM,> 9.50
same,pIC50,second compound 0.03 µM,> 9.50
same,pIC50,second compound 0.0949 µM,> 9.50
same,pIC50,second compound 0.3 µM,> 9.50
same,"viability, T/C","second compound 0.000949 µM, first compound 0.000316 µM",35.2%
same,"viability, T/C","second compound 0.000949 µM, first compound 0.001 µM",28.7%
same,"viability, T/C","second compound 0.000949 µM, first compound 0.00316 µM",24.4%
same,"viability, T/C","second compound 0.000949 µM, first compound 0.01 µM",24.5%
same,"viability, T/C",[1],19.7%
same,"viability, T/C",[2],21%
same,"viability, T/C","second compound 0.003 µM, first compound 0.000316 µM",24.4%
same,"viability, T/C","second compound 0.003 µM, first compound 0.001 µM",22.4%
same,"viability, T/C","second compound 0.003 µM, first compound 0.00316 µM",19.5%
same,"viability, T/C","second compound 0.003 µM, first compound 0.01 µM",17%
same,"viability, T/C",[3],14.3%
same,"viability, T/C",[4],14.4%
same,"viability, T/C","second compound 0.00949 µM, first compound 0.000316 µM",22.5%
same,"viability, T/C","second compound 0.00949 µM, first compound 0.001 µM",16.5%
same,"viability, T/C","second compound 0.00949 µM, first compound 0.00316 µM",17.8%
same,"viability, T/C","second compound 0.00949 µM, first compound 0.01 µM",14.2%
same,"viability, T/C",[5],13.8%
same,"viability, T/C",[6],11.2%
same,"viability, T/C","second compound 0.03 µM, first compound 0.000316 µM",19.3%
same,"viability, T/C","second compound 0.03 µM, first compound 0.001 µM",16.1%
same,"viability, T/C","second compound 0.03 µM, first compound 0.00316 µM",19.1%
same,"viability, T/C","second compound 0.03 µM, first compound 0.01 µM",15.7%
same,"viability, T/C",[7],11.6%
same,"viability, T/C",[8],8.47%
same,"viability, T/C","second compound 0.0949 µM, first compound 0.000316 µM",17.7%
same,"viability, T/C","second compound 0.0949 µM, first compound 0.001 µM",20.1%
same,"viability, T/C","second compound 0.0949 µM, first compound 0.00316 µM",18.3%
same,"viability, T/C","second compound 0.0949 µM, first compound 0.01 µM",14.2%
same,"viability, T/C",[9],12.2%
same,"viability, T/C",[10],10.9%
same,"viability, T/C","second compound 0.3 µM, first compound 0.000316 µM",19.7%
same,"viability, T/C","second compound 0.3 µM, first compound 0.001 µM",21.3%
same,"viability, T/C","second compound 0.3 µM, first compound 0.00316 µM",20.5%
same,"viability, T/C","second compound 0.3 µM, first compound 0.01 µM",16.4%
same,"viability, T/C",[11],14.5%
same,"viability, T/C",[12],10.9%
CC1(O)CCCC1n1c(=O)c(C(F)F)cc2cnc(NC3CCN(S(C)(=O)=O)CC3)nc21 (centres undefined) + CCn1c(-c2cc(N3CCN(C)CC3)cnc2C(C)OC)c2c3cc(ccc31)-c1csc(n1)CC(NC(=O)C1CC1C)C(=O)N1CCCC(N1)C(=O)OCC(C)(C)C2,pIC50,second compound 0.000949 µM,> 7.50
same,pIC50,second compound 0.003 µM,> 7.50
same,pIC50,second compound 0.00949 µM,> 7.50
same,pIC50,second compound 0.03 µM,> 7.50
same,pIC50,second compound 0.0949 µM,> 7.50
same,pIC50,second compound 0.3 µM,> 7.50
same,"viability, T/C",[1],30%
same,"viability, T/C",[2],30.3%
same,"viability, T/C","second compound 0.000949 µM, first compound 0.316 µM",34.5%
same,"viability, T/C","second compound 0.000949 µM, first compound 1 µM",34%
same,"viability, T/C","second compound 0.000949 µM, first compound 3.16 µM",38%
same,"viability, T/C","second compound 0.000949 µM, first compound 10 µM",40.2%
same,"viability, T/C",[3],27.9%
same,"viability, T/C",[4],25.8%
same,"viability, T/C","second compound 0.003 µM, first compound 0.316 µM",26.4%
same,"viability, T/C","second compound 0.003 µM, first compound 1 µM",30.1%
same,"viability, T/C","second compound 0.003 µM, first compound 3.16 µM",32.5%
same,"viability, T/C","second compound 0.003 µM, first compound 10 µM",49.2%
same,"viability, T/C",[5],23%
same,"viability, T/C",[6],20.7%
same,"viability, T/C","second compound 0.00949 µM, first compound 0.316 µM",22.4%
same,"viability, T/C","second compound 0.00949 µM, first compound 1 µM",23.3%
same,"viability, T/C","second compound 0.00949 µM, first compound 3.16 µM",26%
same,"viability, T/C","second compound 0.00949 µM, first compound 10 µM",28.8%
same,"viability, T/C",[7],18.8%
same,"viability, T/C",[8],19.8%
same,"viability, T/C","second compound 0.03 µM, first compound 0.316 µM",22.8%
same,"viability, T/C","second compound 0.03 µM, first compound 1 µM",20.4%
same,"viability, T/C","second compound 0.03 µM, first compound 3.16 µM",29.8%
same,"viability, T/C","second compound 0.03 µM, first compound 10 µM",44.2%
same,"viability, T/C",[9],19.3%
same,"viability, T/C",[10],22.8%
same,"viability, T/C","second compound 0.0949 µM, first compound 0.316 µM",21.2%
same,"viability, T/C","second compound 0.0949 µM, first compound 1 µM",24%
same,"viability, T/C","second compound 0.0949 µM, first compound 3.16 µM",24.9%
same,"viability, T/C","second compound 0.0949 µM, first compound 10 µM",47%
same,"viability, T/C",[11],18.9%
same,"viability, T/C",[12],21.1%
same,"viability, T/C","second compound 0.3 µM, first compound 0.316 µM",23.3%
same,"viability, T/C","second compound 0.3 µM, first compound 1 µM",22.4%
same,"viability, T/C","second compound 0.3 µM, first compound 3.16 µM",29.6%
same,"viability, T/C","second compound 0.3 µM, first compound 10 µM",50.5%

# Source: PubChem BioAssay AID2060901 (Molecular Pharmacology Branch, DTP, NCI, 2025)
